In patent EP4578939A1, “MYC[…]. BASED ON VARIOUS CARBON-NITROGEN METABOLIC […], METHOD FOR ISOLATING SAME, AND USE THEREOF” (Peng, Guanghao, priority 2022, dated 2024):
Where a name gives a salt, the structure may show the parent alone. Read-outs that look alike come from different tables or passages of the source.

Tested on: strain YT
Assay: inhibition of nitrification inhibitors on nitrification activity and growth
Format: cell-based, Mycobacterium sp.
Settings: for inhibition at 5000 µM: Mycobacterium, read-out: Nitric oxide synthase (nitrification) activity inhibition rate (%); for inhibition at 5000 µM / effect on growth of strain YT / effect on nitrification activity of strain YT / NH4^+-N / NO2^--N / OD600 / Nitric oxide synthase (nitrification) activity inhibition rate (%): inhibitor 5 mM; for effect on growth of strain YT: pure culture with two nitrogen sources; for effect on nitrification activity of strain YT: pure culture; for inhibition rate on nitrification activity: over the 35 days of culture
Protocol: The nitrogen contents of the two nitrogen sources were equal in a modified Stephenson medium with (NH4)2SO4 as a nitrogen source (NH4)2SO4 content was 2.0g/L) and a modified Stephenson medium with L-arginine hydrochloride (C6H14N4O2•HCl) as a nitrogen source (C6H14N4O2•HCl content was 1.6 g/L).
When sodium pyruvate was added as a carbon source in the design of a culture medium, 1.0M sodium pyruvate solution (the concentration was calculated in terms of pyruvic acid) was prepared firstly, the pH was adjusted to the range of 7.0-7.2, and the solution was sterilized separately for later use. Before use, 1ml of 1.0M sodium pyruvate solution was added to about 100ml of modified Stevenson culture medium with (NH4)2SO4 as a nitrogen source or L-arginine hydrochloride (C6H14N4O2•HCl) as a nitrogen source, and the pyruvic acid concentration of the culture system was designed to be 0.01M.
Four kinds of nitrification inhibitors 4-amino-1,2,4-triazole (ATC), dicyandiamide (DCD, C2H4N4), aminoguanidine hydrochloride (CH6N4•HCl), and guanylthiourea (C2H6N4S) were selected. The four nitrification inhibitors were prepared with a concentration of 500mM, respectively, after the solutions were filtered and sterilized, 1ml of the four nitrification inhibitors with a concentration of 500mM was added into the two medium with different nitrogen sources, such that the corresponding concentration of each of the nitrification inhibitors in the systems was 5 mM.
Two mediums with different nitrogen sources were respectively subjected to 5 treatments, namely without addition of an inhibitor, adding ATC, adding DCD, adding aminoguanidine hydrochloride, and adding guanylthiourea as shown in the table below; the YT system without addition of an inhibitor and the system without inoculation of strain YT and only addition of an inhibitor were respectively used as a control group; 1ml of PBS-YT bacterial liquid was inoculated, and 1ml of sterile water was used as a substitute when the inoculation of a bacterial strain was not performed. The total volume of each culture system was equal, it was about 100 ml.
1.5 Culture conditions: the culture was performed in a shaking table with a rotational speed of 180rpm at 28°C.
1.6 Measurement and calculation of indicator: the growth OD600 and pH value of thallus in the culture solution were measured every week, the contents of NH4^+-N, NO2^--N and NOx^--N were measured, the inhibition effect of the nitric oxide synthase (nitrification) activity of different culture systems were calculated and compared.
Nitric oxide synthase (nitrification) inhibition rate (%) = (NO2^--NYT concentration - NO2^--Nculture system added with an inhibitor concentration) ×100/ NO2^--NYT concentration

[1] = strain YT, L-arginine hydrochloride as nitrogen source, 7 days (Table 13c)
[2] = strain YT, L-arginine hydrochloride as nitrogen source, 14 days (Table 13c)
[3] = strain YT, L-arginine hydrochloride as nitrogen source, 20 days
[4] = strain YT, L-arginine hydrochloride as nitrogen source, 31 days
[5] = strain YT, ammonium sulfate as nitrogen source, 7 days (Table 13c)
[6] = strain YT, ammonium sulfate as nitrogen source, 14 days (Table 13c)
[7] = strain YT, ammonium sulfate as nitrogen source, 20 days
[8] = strain YT, ammonium sulfate as nitrogen source, 31 days
[9] = 504 h, strain YT, Ammonium sulfate, Culture 21 days
[10] = 504 h, strain YT, L-arginine hydrochloride, Culture 21 days
[11] = 672 h, strain YT, Ammonium sulfate, Culture 28 days
[12] = 672 h, strain YT, L-arginine hydrochloride, Culture 28 days
[13] = strain YT, Ammonium sulfate, Culture 7 days (Table 13d)
[14] = strain YT, Ammonium sulfate, Culture 14 days (Table 13d)
[15] = strain YT, Ammonium sulfate, Culture 35 days
[16] = strain YT, L-arginine hydrochloride, Culture 14 days (Table 13d)
[17] = strain YT, L-arginine hydrochloride, Culture 35 days
[18] = strain YT, L-arginine hydrochloride as nitrogen source, 7 days
[19] = strain YT, L-arginine hydrochloride as nitrogen source, 14 days
[20] = strain YT, L-arginine hydrochloride as nitrogen source, 21 days
[21] = strain YT, L-arginine hydrochloride as nitrogen source, 28 days
[22] = strain YT, L-arginine hydrochloride as nitrogen source, 35 days
[23] = strain YT, ammonium sulfate as nitrogen source, 7 days
[24] = strain YT, ammonium sulfate as nitrogen source, 14 days
[25] = strain YT, ammonium sulfate as nitrogen source, 21 days
[26] = strain YT, ammonium sulfate as nitrogen source, 28 days
[27] = strain YT, ammonium sulfate as nitrogen source, 35 days

In the case of N#CN=C(N)N [DCD, dicyandiamide], the inhibition at 5000 µM (168 h, strain YT, Ammonium sulfate, Culture 7 days (Table 13e)) is reported as 0%, the inhibition at 5000 µM (168 h, strain YT, L-arginine hydrochloride, Culture 7 days (Table 13e)) is reported as 0% and the inhibition at 5000 µM (336 h, strain YT, Ammonium sulfate, Culture 14 days (Table 13e)) is reported as 0%. The inhibition at 5000 µM (336 h, strain YT, L-arginine hydrochloride, Culture 14 days (Table 13e)) was 7.14%, the inhibition at 5000 µM (480 h, strain YT, Ammonium sulfate, Culture 20 days) was 32.4% and the inhibition at 5000 µM (480 h, strain YT, L-arginine hydrochloride, Culture 20 days) was 0.72%. The inhibition at 5000 µM (strain YT, Ammonium sulfate, Culture 31 days) was 8.62%, the inhibition at 5000 µM (strain YT, L-arginine hydrochloride, Culture 31 days) was 0% and the “effect on growth of strain YT” value was “did not inhibit the growth”. For the same molecule, the “effect on nitrification activity of strain YT” value was “did not impose an inhibitory effect”, the “NH4^+-N” value [1] was 18 and the “NO2^--N” value [1] was 0.50. The OD600 [1] was 0.397, the “NH4^+-N” value [2] was 121 and the “NO2^--N” value [2] was 32.5. For the same molecule, the OD600 [2] was 0.438, the “NH4^+-N” value [3] was 191 and the “NO2^--N” value [3] was 152.77. The OD600 [3] was 0.415, the “NH4^+-N” value [4] was 173 and the “NO2^--N” value [4] was 153.87. For the same molecule, the OD600 [4] was 0.378, the “NH4^+-N” value [5] was 421 and the “NO2^--N” value [5] was 1.00. For the same molecule, the OD600 [5] was 0.207, the “NH4^+-N” value [6] was 408 and the “NO2^--N” value [6] was 2.50. The OD600 [6] was 0.121, the “NH4^+-N” value [7] was 355 and the “NO2^--N” value [7] was 3.20. The OD600 [7] was 0.127, the “NH4^+-N” value [8] was 382 and the “NO2^--N” value [8] was 5.11. For the same molecule, the OD600 [8] was 0.128.
With N=C(N)NC(N)=S [Amidinothiourea, guanylthiourea] the inhibition at 5000 µM [9] was 59.8%, the inhibition at 5000 µM [10] was 72.7% and the inhibition at 5000 µM [11] was 33.5%. For the same molecule, the inhibition at 5000 µM [12] was 77.4%, the inhibition at 5000 µM [13] was 95.6% and the inhibition at 5000 µM [14] was 94.8%. It also gave an inhibition at 5000 µM [15] of 11%, an inhibition at 5000 µM [16] of 98.3% and an inhibition at 5000 µM [17] of 72%. For the same molecule, the “effect on growth of strain YT” value was “can obviously inhibit the growth”, the “effect on nitrification activity of strain YT” value was “also exhibited inhibitory effect” and the “Nitric oxide synthase (nitrification) activity inhibition rate (%)” value [15] was 11.07%. For the same molecule, the “NH4^+-N” value [18] was 8.13 mg/L, the “NO2^--N” value [18] was 0 mg/L and the “NH4^+-N” value [19] was 175.90 mg/L. For the same molecule, the “NO2^--N” value [19] was 1.72 mg/L, the “NH4^+-N” value [20] was 154.73 mg/L and the “NO2^--N” value [20] was 31.10 mg/L. For the same molecule, the “NH4^+-N” value [21] was 138.43 mg/L, the “NO2^--N” value [21] was 25.70 mg/L and the “NH4^+-N” value [22] was 165.02 mg/L. For the same molecule, the “NO2^--N” value [22] was 32.26 mg/L, the “Nitric oxide synthase (nitrification) activity inhibition rate (%)” value [17] was 71.62% and the “NH4^+-N” value [23] was 395.07 mg/L. The “NO2^--N” value [23] was 0.02 mg/L, the “NH4^+-N” value [24] was 418.86 mg/L and the “NO2^--N” value [24] was 0.13 mg/L. For the same molecule, the “NH4^+-N” value [25] was 407.33 mg/L, the “NO2^--N” value [25] was 1.64 mg/L and the “NH4^+-N” value [26] was 419.92 mg/L. The “NO2^--N” value [26] was 4.57 mg/L, the “NH4^+-N” value [27] was 422.98 mg/L and the “NO2^--N” value [27] was 6.12 mg/L. The “inhibition rate on nitric oxide synthase (nitrification) activities” value (strain YT, two nitrogen sources, before 14 days of culture) was ≥ 95%.
With N=C(N)NN [Aminoguanidine hydrochloride, aminoguanidine hydrochloride] the inhibition at 5000 µM [9] was 99.4%, the inhibition at 5000 µM [10] was 99.8% and the inhibition at 5000 µM [11] was 97.2%. For the same molecule, the inhibition at 5000 µM [12] was 99.5%, the inhibition at 5000 µM [13] was 99.2% and the inhibition at 5000 µM [14] was 99.7%. The inhibition at 5000 µM [15] was 98%, the inhibition at 5000 µM [16] was 99.8% and the inhibition at 5000 µM [17] was 99.1%. The “effect on growth of strain YT” value was “can inhibit the growth”, the “effect on nitrification activity of strain YT” value was “had an inhibitory effect” and the “NH4^+-N” value [18] was 12.86 mg/L. For the same molecule, the “NO2^--N” value [18] was 0 mg/L, the “NH4^+-N” value [19] was 38.07 mg/L and the “NO2^--N” value [19] was 0.24 mg/L. For the same molecule, the “NH4^+-N” value [20] was 100.12 mg/L, the “NO2^--N” value [20] was 0.28 mg/L and the “NH4^+-N” value [21] was 145.55 mg/L. The “NO2^--N” value [21] was 0.58 mg/L, the “NH4^+-N” value [22] was 58.70 mg/L and the “NO2^--N” value [22] was 1.00 mg/L. The “inhibition rate on nitrification activity” value (strain YT, L-arginine hydrochloride as nitrogen source) was ≥ 99%, the “NH4^+-N” value [23] was 418.92 mg/L and the “NO2^--N” value [23] was 0 mg/L. The “NH4^+-N” value [24] was 419.06 mg/L, the “NO2^--N” value [24] was 0.01 mg/L and the “NH4^+-N” value [25] was 438.98 mg/L. The “NO2^--N” value [25] was 0.03 mg/L, the “NH4^+-N” value [26] was 448.65 mg/L and the “NO2^--N” value [26] was 0.19 mg/L. For the same molecule, the “NH4^+-N” value [27] was 468.07 mg/L, the “NO2^--N” value [27] was 0.14 mg/L and the “inhibition rate on nitrification activity” value (strain YT, ammonium sulfate as nitrogen source) was “more than 97%”.
